Test results reported in patent publication US7947854B2, “Bis-cationic compounds and use thereof” (The University of Sydney, priority 2003, dated 2011).
Like-named read-outs stand apart in the source and are kept apart here.

Columns and labels:
[1] = test system: Candida albicans ATCC 10231; test: Antifungal susceptibility testing, microdilution MIC; type: cell-based
Description: (§1) Antifungal susceptibility testing. The antifingal activity of the compounds was measured by a standard microdilution method. […] The fungal strains tested included Cryptococcus neoformans H99, Cryptococcus neoformans ATCC 90112 and Candida albicans ATCC 10231. All tests were performed in duplicate.
(§2) A range of cationic compounds were assayed for antifungal activity in a standardised serial dilution sensitivity test against C. neoformans ([…]) and C. Albicans (ATCC 10231).

[2] = test system: erythrocyte; type: cell-based; settings: 37° C., 1 h
Description: Human blood was collected in 10 mL Vacutainer tubes containing potassium-EDTA as anticoagulant. The blood from each vacutainer was transferred to a 50 mL centrifuge tube and the cells washed three times with calcium- and magnesium-free phosphate buffered saline (PBS) (Gibco) by centrifugation at 2000×g for 15 min. The third supernatant was clear and colourless. Cells were stored in PBS for up to two weeks. The cell suspension in PBS (0.5 mL) was mixed with a stock solution of test substance (0.5 mL) at the appropriate concentration (final erythrocyte concentration of approx. 0.5×10^9 per mL). The mixtures were incubated at 37° C. for 1 h with gentle shaking, then centrifuged at 2000×g for 10 min. The supernatant was diluted 10-fold with PBS and the optical density measured at 540 nm. The values for 0% and 100% lysis were determined by incubating cells with PBS or 0.1% Triton X-100 (in water), respectively. Assays were carried out in triplicate.

[3] = test system: Cryptococcus neoformans ATCC 90112; test: Antifungal susceptibility testing, microdilution MIC; type: cell-based
Description: as §1, §2

[4] = test system: secreted phospholipase B (PLB activity); test: Radiometric assay, secreted PLB activity; type: biochemical, Cryptococcus neoformans H99
Description: (§3) Fungal isolates and media. […] Isolate H99 was kindly supplied by Dr. Gary Cox (Duke University Medical Center, Durham, N.C., USA), and subcultured onto Sabouraud dextrose agar (SDA) at 30° C.
(§4) Preparation of supernatants containing secreted phospholipase activities. Isolate H99 was grown to confluence on SDA in 16 cm diameter Petri dishes for 72 h at 30° C. in air. Cells scraped from 10-20 dishes were washed sequentially with isotonic saline and imidazole buffer (10 mM imidazole, 2 mM CaCl2, 2 mM Mg Cl2, 56 mM D-Glucose, made up in isotonic saline, pH 5.5), resuspended in a volume of this buffer of about 10% of the cell volume, and incubated for 24 h at 37° C. The cell-free supernatant was separated by centrifugation as previously described and stored at −70° C.
Radiometric assay method for phospholipases. Enzyme activities were measured as described previously in a final volume of 125 μL at 37° C. For the determination of secreted PLB activity, carrier dipalmitoyl phosphatidylcholine (DPPC, final concentration 800 μM) and 1,2-di[1-^14C] palmitoyl phosphatidylcholine (20,000 dpm) were dried under nitrogen and suspended in 125 mM imidazole acetate buffer (assay buffer, pH 4.0) by sonication using a Branson 450 sonifier. The reaction time was 22 min, using 1 μg total protein and PLB activity was determined by the rate of decrease of the radiolabelled PC substrate, with appearance of the label in free fatty acid. This assay also simultaneously allows for the determination of phospholipase A, C and D activities. These activities were measured by the appearance of radiolabel from PC in Lyso PC, diacylglycerol and phosphatidic acid, respectively.
(§5) All reactions were terminated by adding 0.5 mL of chloroform:methanol (2:1 v/v). The reaction products were extracted by the method as disclosed in Bligh, E. C. and W. J. Dyer. 1959 ‘A rapid method of total lipid extraction and purification.’ Can. J. Biochem. Physiol. 37:911-917, separated by TLC and quantified as previously described. In the case of PLC activity, the TLC plates were developed in petroleum ether (BP 60-80° C.): diethyl ether: acetic acid (90:15:1, v/v/v) instead of chloroform:methanol:water (65:25:4, v/v/v).
(§6) Preparation of inhibitors and use in assays. The following compounds were tested (for structures, see FIG. 2): compound 1, 1,12-bis(tributylphosphonium)dodecane dibromide (Fluka AG, Buchs, Switzerland); compound 2, 1,10-bis(tributylammonium)-decane dibromide; compound 3, 1,12-bis(tributylammonium)do-decane dibromide (both synthesised in-house); compound 4, 1,10-bis(trimethylammonium)decane dibromide [“decamethonium”] (Sigma, St. Louis Mo., USA). All compounds were prepared as stock solutions of 700 μM in assay buffer containing 5 mM EDTA, which was then diluted serially with buffer to obtain solutions of 70, 7, 0.7 and 0.07 μM. In each assay, 45 μL of these solutions was used, and the final volume of 125 μL was made up of substrate, enzyme and buffer. The radiometric assay was carried out as above. Inhibition was calculated as the percent of substrates (DPPC or Lyso-PC) remaining in the case of PLB and LPL activities, or of DPPC produced, in the case of the LPTA activity. The amounts converted, or produced, in the inhibitor-free control were normalised to 100%, and the inhibition calculated against it. All assays were done in triplicate.
(§7) Under these conditions only PLB, LPL and LPTA activities (both secreted and cell-associated) were measured. Initially, compounds deemed to be potential inhibitors were assayed at 25 and 250 μM. Those showing some inhibition were then also assayed at 2.5 and 0.25 μM.

[5] = test system: secreted phospholipase B (LPL/LPTA activities); test: Radiometric assay, secreted LPL and LPTA activities (Lyso assay); type: biochemical, Cryptococcus neoformans H99
Description: as §3, §4
Secreted LPL and LPTA activities were measured simultaneously in a reaction mixture containing 1-[^14C]palmitoyl lyso-PC (25,000 dpm) and carrier lyso-PC (final concentration 200 μM) in assay buffer. The reaction time was […] with 1 μg of total protein and LPL activity was measured by the rate of loss of 1-[^14C]palmitoyl lyso-PC with release of radiolabelled fatty acids. LPTA activity was estimated from the rate of formation of radiolabelled PC.
as §5, §6, §7

[6] = Candida albicans, ATCC10231, Table 7, read-out: MIC (μM) C. alb. (10231)
[7] = Cryptococcus neoformans, ATCC90112, Table 7, read-out: MIC (μM) Crypto. (ATCC 90112)
[8] = Table 7, read-out: MIC (μM) C. alb. (10231)
[9] = Table 7, read-out: MIC (μM) Crypto. (ATCC 90112)

| SMILES | MIC [1, 6] [µM] | PLB assay (% inhibition) ([4]; 25 μM) | PLB assay (% inhibition) ([4]; 250 μM) | Lyso assay (% inhibition) LPL ([5]; 25 μM) | Lyso assay (% inhibition) LPTA ([5]; 25 μM) | Lyso assay (% inhibition) LPL ([5]; 250 μM) | Lyso assay (% inhibition) LPTA ([5]; 250 μM) | MIC [1, 8] [µM] | MIC [3, 9] [µM] | also measured |
| --- | --- | --- | --- | --- | --- | --- | --- | --- | --- | --- |
| CCCCCCCCCCCCCCCC[N+](CCCC)(CCCC)CCCC | 1.4 |  |  |  |  |  |  |  |  | Haemolytic assay (%) ([2]; 3.5 μM): 2.5%; Haemolytic assay (%) ([2]; 35 μM): 4%; Haemolytic assay (%) ([2]; 88 μM): 19%; Haemolytic assay (%) ([2]; 175 μM): 75%; Haemolytic assay (%) ([2]; 350 μM): 100% |
| CCCC[N+](CCCC)(CCCC)CCCCCCCCCCC[N+](CCCC)(CCCC)CCCC [1,11-Bis-(tributylammonium)undecane dichloride] | 44 |  |  |  |  |  |  |  |  | MIC [3, 7]: 22 µM |
| C[N+]1(CCCCCCCCCCCC[N+]2(C)CCOCC2)CCOCC1 [1,12-Bis-(1-methylmorpholinium)dodecane dibromide] | 88 |  |  |  |  |  |  |  |  | MIC [3, 7]: 44 µM |
| C(CCCCCC[N+]12CCC(CC1)CC2)CCCCC[N+]12CCC(CC1)CC2 [1,12-Bis-(quinuclidinium)dodecane dibromide] | ≥ 350 | 0% | 5% | 250 μM = 0% 25 μM = 0% 2.5 μM = 0% 0.25 μM = 0% | 250 μM = 0% 25 μM = 0% 2.5 μM = 0% 0.25 μM = 0% | 250 μM = 0% 25 μM = 0% 2.5 μM = 0% 0.25 μM = 0% | 250 μM = 0% 25 μM = 0% 2.5 μM = 0% 0.25 μM = 0% |  |  | PLB assay (% inhibition) ([4]; 0.25 μM): 0%; PLB assay (% inhibition) ([4]; 2.5 μM): 0%; Lyso assay (% inhibition) LPL ([5]; 0.25 μM): 250 μM = 0% 25 μM = 0% 2.5 μM = 0% 0.25 μM = 0%; Lyso assay (% inhibition) LPTA ([5]; 0.25 μM): 250 μM = 0% 25 μM = 0% 2.5 μM = 0% 0.25 μM = 0%; Lyso assay (% inhibition) LPL ([5]; 2.5 μM): 250 μM = 0% 25 μM = 0% 2.5 μM = 0% 0.25 μM = 0%; Lyso assay (% inhibition) LPTA ([5]; 2.5 μM): 250 μM = 0% 25 μM = 0% 2.5 μM = 0% 0.25 μM = 0%; MIC [3, 7]: 350 µM |
| CC[N+](CC)(CC)CCCCCCCCCCCC[N+](CC)(CC)CC [1,12-Bis-(triethylammonium)dodecane dibromide] |  |  |  |  |  |  |  |  |  | MIC ([1]; Candida albicans, ATCC10231, read-out: MIC (μM) C. alb. (10231)): 22 µM; MIC ([3]; Cryptococcus neoformans, ATCC90112, read-out: MIC (μM) Crypto. (ATCC 90112)): 11 µM |
| CCCCCC[N+](CCCCCC)(CCCCCC)CCCCCCCCCCCC[N+](CCCCCC)(CCCCCC)CCCCCC.[Cl-].[Cl-] [1,12-Bis-(trihexylammonium)dodecane dichloride] |  |  |  |  |  |  |  | 8.8 | 17.5 |  |
| CC(C)C[N+](CCCCCCCCCCCC[N+](CC(C)C)(CC(C)C)CC(C)C)(CC(C)C)CC(C)C.[Br-].[Br-] [1,12-Bis-(triisobutylammonium)dodecane dibromide] |  | 250 μM = 0% 25 μM = 0% 2.5 μM = n.d. 0.25 μM = n.d. | 250 μM = 0% 25 μM = 0% 2.5 μM = n.d. 0.25 μM = n.d. | 250 μM = 0% 25 μM = 0% 2.5 μM = n.d. 0.25 μM = n.d. | 4% | 250 μM = 0% 25 μM = 0% 2.5 μM = n.d. 0.25 μM = n.d. | 5% |  |  | MIC (μM) C. alb. (10231) ([1]; Table 7): ≧350 μM; MIC (μM) Crypto. (ATCC 90112) ([3]; Table 7): ≧350 μM |
| CC(C)CC[N+](CCCCCCCCCCCC[N+](CCC(C)C)(CCC(C)C)CCC(C)C)(CCC(C)C)CCC(C)C.[Cl-].[Cl-] [1,12-Bis-(triisopentylammonium)dodecane dichloride] |  | 68% | 63% | 250 μM = 11% 25 μM = 11% 2.5 μM = n.d. 0.25 μM = n.d. | 0% | 250 μM = 11% 25 μM = 11% 2.5 μM = n.d. 0.25 μM = n.d. | 6% | 2.2 | 4.4 | PLB assay (% inhibition) ([4]; 0.25 μM): 0%; PLB assay (% inhibition) ([4]; 2.5 μM): 9%; PLB assay (% inhibition) ([4]; 6.7 μM): 38%; PLB assay (% inhibition) ([4]; 12.5 μM): 56% |
| CCCCCCCC[N+](CCCCCCCC)(CCCCCCCC)CCCCCCCCCCCC[N+](CCCCCCCC)(CCCCCCCC)CCCCCCCC.[Cl-].[Cl-] [1,12-Bis-(trioctylammonium)dodecane dichloride] |  |  |  |  |  |  |  | 100 | 35 |  |
| CCCCC[N+](CCCCC)(CCCCC)CCCCCCCCCCCC[N+](CCCCC)(CCCCC)CCCCC.[Br-].[Br-] [1,12-Bis-(tripentylammonium)dodecane dibromide] |  | 73% | 63% | 250 μM = 10% 25 μM = 10% 2.5 μM = n.d. 0.25 μM = n.d. | 0% | 250 μM = 10% 25 μM = 10% 2.5 μM = n.d. 0.25 μM = n.d. | 2.4% | 5.5 | 5.5 | PLB assay (% inhibition) ([4]; 0.25 μM): 0%; PLB assay (% inhibition) ([4]; 2.5 μM): 12% |
| CC[N+](CC)(CC)CCOc1cccc(OCC[N+](CC)(CC)CC)c1OCC[N+](CC)(CC)CC [Gallamine triethiodide, reference compound] | ≥ 350 |  |  |  |  |  |  |  |  | Haemolytic assay (%) ([2]; 3.5 μM): 350 μM = 0% 175 μM = 0% 88 μM = 0% 35 μM = 0% 3.5 μM = 0%; Haemolytic assay (%) ([2]; 35 μM): 350 μM = 0% 175 μM = 0% 88 μM = 0% 35 μM = 0% 3.5 μM = 0%; Haemolytic assay (%) ([2]; 88 μM): 350 μM = 0% 175 μM = 0% 88 μM = 0% 35 μM = 0% 3.5 μM = 0%; Haemolytic assay (%) ([2]; 175 μM): 350 μM = 0% 175 μM = 0% 88 μM = 0% 35 μM = 0% 3.5 μM = 0%; Haemolytic assay (%) ([2]; 350 μM): 350 μM = 0% 175 μM = 0% 88 μM = 0% 35 μM = 0% 3.5 μM = 0% |
| C[N+]1(C)CCOC(O)(c2ccc(-c3ccc(C4(O)C[N+](C)(C)CCO4)cc3)cc2)C1 (stereo not drawn) [Hemicholinium dibromide, reference compound] | ≥ 350 |  |  |  |  |  |  |  |  | Haemolytic assay (%) ([2]; 3.5 μM): 350 μM = 0% 175 μM = 0% 88 μM = 0% 35 μM = 0% 3.5 μM = 0%; Haemolytic assay (%) ([2]; 35 μM): 350 μM = 0% 175 μM = 0% 88 μM = 0% 35 μM = 0% 3.5 μM = 0%; Haemolytic assay (%) ([2]; 88 μM): 350 μM = 0% 175 μM = 0% 88 μM = 0% 35 μM = 0% 3.5 μM = 0%; Haemolytic assay (%) ([2]; 175 μM): 350 μM = 0% 175 μM = 0% 88 μM = 0% 35 μM = 0% 3.5 μM = 0%; Haemolytic assay (%) ([2]; 350 μM): 350 μM = 0% 175 μM = 0% 88 μM = 0% 35 μM = 0% 3.5 μM = 0% |
